In patent US6841236B2, “Articles containing thioxanthone dyes” (3M Innovative Properties Co., priority 2001, dated 2005):

Legend:
Assay type in all cases: physicochemical
[1] = Daytime color of vinyl film with dye laminated to retroreflective sheeting; conditions: 0.18 g dye in 65 g GEON 178 / Elvacite 2013 mixture, 0.04 mm vinyl film on Scotchlite 3970
Procedure: (§1) The daytime color of each article was measured using a Labsphere BFC-450 Bispectral Colorimeter commercially available from Labsphere, North Sutton, N.H. The daytime chromaticity (x,y), total luminance factor (YT), and fluorescence luminance factor (YF; which is a measure of the fluorescent properties of the article) calculated for the CIE D65 and the CIE 1931 observer are provided in TABLE II
Examples 22-23 were prepared by independently stirring 0.18 g of the dye of Examples 1 and 3 into 65 g of a mixture composed of 42 wt.-% DIBK, xylol, and mineral spirit (1.7:2.3:1), 44 wt.-% of a polyvinyl chloride dispersion commercially available from PolyOne, Cleveland, Ohio under the trade designation “GEON 178” and 14 wt.-% of a polyacrylate commercially available from Ineos Acrylics Inc., Cordova, Tenn. under the trade designation “Elvacite 2013”. Each mixture was allowed to stand at room temperature for one hour prior to knife coating onto a pre-sized paper substrate. Each coated substrate was placed in a 150° F. (66° C.) oven for 1.5 minutes, followed by a 300° F. (149° C.) oven for 1.0 minute and a 400° F. (204° C.) oven for 0.75 minute, resulting in a 0.04 mm thick fluorescent colored vinyl film.
The resultant films were laminated to Scotchlite 3970 reflective sheeting on aluminum panels as described in Examples 8-10. Color values were measured as described in Examples 8-10 and the results set out in TABLE VI.

[2] = Daytime color of polycarbonate sheet with dye laminated to retroreflective sheeting (Labsphere BFC-450 Bispectral Colorimeter); conditions: 0.2% dye in polycarbonate FCR-2407, 0.1 mm sheet on Scotchlite 3970; CIE D65, CIE 1931 observer
Procedure: Examples 8-10 were prepared with the compounds of Examples 1 and 2 and 6-methoxy-14H-anthra(2,1,9-mna)thioxanthene-14-one at a 0.2% loading in polycarbonate FCR-2407. Extrusion conditions for the polycarbonate were 260-304° C. using a single screw extruder. Optically transparent pressure sensitive adhesive with a liner on both sides of the adhesive was laminated to the 0.1 mm thick sheet of polycarbonate by removing one of the liners from the adhesive and then applying the exposed adhesive to the polycarbonate sheet with two passes of a roller using hand pressure.
The remaining liner was removed from the adhesive and the polycarbonate sheet construction was laminated to retroreflective sheeting commercially available from 3M under the trade designation “Scotchlite Diamond Grade LDP Reflective Sheeting Series 3970” (Scotchlite 3970) with two passes of a roller using hand pressure. The Scotchlite 3970 reflective sheeting had previously been laminated to a 7 cm wide by 28 cm long aluminum panel (6061T6 alloy with etch and desmut surface from Q Panel Company, Cleveland, Ohio) with two passes of a roller with hand pressure.
as §1

[3] = Daytime color and visual inspection of PMMA film with dye laminated to retroreflective sheeting
Procedure: as §1
Examples 11-16 were prepared with the compounds of Examples 1-2 and 6-methoxy-14H-anthra(2,1,9-mna)thioxanthene-14-one in polymethylmethacrylate (PMMA) resin at the wt.-% of dye shown in TABLE III. The samples were prepared by dry blending the dye with a medium impact modified grade PMMA resin commercially available from Ineos Acrylics Inc., Cordova, Tenn. under the trade designation “CP923”. Films of 0.1 mm thickness were extruded through a single screw extruder with three heating zones set at 249° C. to 260° C. […] Examples 11 and 12 and Examples 13 and 14 had equal molar loadings of dye.
The resultant films were laminated to Scotchlite 3970 reflective sheeting on aluminum panels as described in Examples 8-10. Color values were measured as described in Examples 8-10 and the results set out in TABLE III.

[4] = Daytime color of copolyester film with dye laminated to retroreflective sheeting; conditions: dye 0.2 wt.-% in copolyester resin, 0.1 mm film on Scotchlite 3970
Procedure: as §1
Examples 17-18 were prepared as described in Examples 8-10, except that the dyes of Examples 1 and 2 at a 0.2 wt.-% loading were independently incorporated into a copolyester resin. The copolyester resin was prepared using terephthalic and isophthalic acid in an 80/20 ratio and ethylene glycol in the conventional manner and analogous to the production of polyethylene terephthalate according to the method described in Macromolecular Syntheses, A Periodic Publication of Methods for the Preparation of Macromolecules, Collective Volume I, 1977, J. A. Moore, Editor, (John Wiley & Sons, New York; 1978);p. 17-21. The extrusion conditions for the copolyester were 254-260° C. using a single screw extruder and the resultant film thickness was 0.1 mm.
The resultant films were laminated to Scotchlite 3970 reflective sheeting on aluminum panels as described in Examples 8-10. Color values were measured as described in Examples 8-10 and the results set out in TABLE IV.

[5] = Dye concentration in saturated acetone solution at room temperature; conditions: 72 hours at RT, 0.45 micron PTFE filtered, absorbance at 535 nm
Procedure: Examples 4-7 were prepared by placing 60-100 mg of each of the compounds of Examples 1-3 and 6-methoxy-14H-anthra(2,1,9-mna)thioxanthene-14-one (described by Carlini et al.) in a vial with 5.0 ml acetone. […] Each vial was hand shaken and the solution was filtered using a 0.45 micron polytetrafluoroethylene (PTFE) filter commercially available from VWR Scientific Products, West Chester, Pa. under the trade designation “Acrodisc 13CR PTFE”.
The amount of fluorescent dye in the saturated acetone solution was determined by measuring the major dye absorption band at 535 nm using a UV-Vis Spectrophotometer commercially available from Shimadzu Scientific Instruments, Inc., Columbia, Md. under the trade designation “Shimadzu model UV-2401PC”. Dye concentrations were calculated by measuring the absorbance of the saturated acetone solution, and then diluting that solution until absorbance of the resulting solution was below 3. The dyes were assumed to have equal absorbance per mole. Using the dilution and an absorbance coefficient of 16,100 A/mol/L (coefficient obtained in acetone for the dye of Example 3) and assuming a Beer's Law relationship, the concentration of dye in each saturated solution was calculated and is set out in TABLE I

[6] = dye 0.2 wt-% in PMMA CP923, 0.1 mm film on Scotchlite 3970
[7] = dye 0.38 wt-% in PMMA CP923, 0.1 mm film on Scotchlite 3970
[8] = dye 1.27 wt-% in PMMA CP923, 0.1 mm film on Scotchlite 3970

For CCCCCCCCOc1cc2c3ccccc3c(=O)c3ccc4c5ccccc5sc1c4c32 [Example 1, 6-n-Octyloxy-14H-anthra(2,1,9mna)thioxanthene-14-one], the “Y (daytime chromaticity)” value [1] was 0.2762, the “YF (fluorescence luminance factor)” value [1] was 12.31 and the “YT (total luminance factor)” value [1] was 23.82. The “x (daytime chromaticity)” value [1] was 0.5149, the “YF (fluorescence luminance factor)” value [2] was 14.6 and the “YT (total luminance factor)” value [2] was 32.87. The “x (daytime chromaticity)” value [2] was 0.5232, the “y (daytime chromaticity)” value [2] was 0.3132 and the “fluorescence relative to articles with the 6-methoxy dye” value ([3]; PMMA films, equal molar loadings of dye, by fluorescence luminance factor) was “higher fluorescence”. For the same compound, the “X (daytime chromaticity)” value [3, 6] was 0.5210, the “YF (fluorescence luminance factor)” value [3, 6] was 16.83 and the “YT (total luminance factor)” value [3, 6] was 30.85. The “y (daytime chromaticity)” value [3, 6] was 0.3252, the “X (daytime chromaticity)” value [3, 7] was 0.5923 and the “YF (fluorescence luminance factor)” value [3, 7] was 13.74. For the same compound, the “YT (total luminance factor)” value [3, 7] was 19.96, the “y (daytime chromaticity)” value [3, 7] was 0.3022 and the “X (daytime chromaticity)” value [3, 8] was 0.6305. The “YF (fluorescence luminance factor)” value [3, 8] was 4.97, the “YT (total luminance factor)” value [3, 8] was 7.80 and the “y (daytime chromaticity)” value [3, 8] was 0.3008. For the same compound, the “visual inspection of film for undissolved dye” value ([3]; extruded PMMA CP923 film 0.1 mm, 6-methoxy dye at 1 wt.-%, dyes of Examples 1-2 at up to 1.27 wt-%) was “uniform appearance with no undissolved dye seen”, the “YF (fluorescence luminance factor)” value [4] was 11.70 and the “YT (total luminance factor)” value [4] was 22.83. The “x (daytime chromaticity)” value [4] was 0.5429, the “y (daytime chromaticity)” value [4] was 0.3056 and the “Dye Concentration in Acetone at RT” value [5] was 0.19 mg/mL.
